The record followed here is patent publication US9783536B2, “Nitrogen-containing heterocyclic compound or salt thereof” (FUJIFILM Corporation, priority 2013, dated 2017).

Molecules are shown by their SMILES. Where a name gives a salt, the structure may show the parent alone.

Common to all, as to assay type: biochemical
One assay has as its target T1, human PI3Kα protein (Homo sapiens, UniProt P42336).
T1 construct: purchased Carna Biosciences, Inc; host or cells: baculovirus expression system
Nature of the assay: PI3Kα enzyme assay (ADP-Glo). As to conditions: 4.5 nmol/L PI3Kα, PIP2 50 μmol/L, ATP 100 μmol/L; read-out: PI3Kα enzyme inhibitory activity. The essentials:
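Biotinylated human PI3Kα (baculovirus-expressed, 4.5 nmol/L) pre-incubated 15 min with compound in Tris-HCl pH 7.5, MgCl2, BSA; reaction 60 min at 25° C with 50 μmol/L PIP2 and 100 μmol/L ATP final. ADP quantified by ADP-Glo luminescence; IC50 calculated.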
On the technique in general: ADP-Glo first removes unused ATP, then detects ADP through luciferase.

Assay [1] concerns the target T2, GST fusion human ERK2 protein (Homo sapiens, UniProt P28482).
T2 construct: purchased Carna Biosciences, Inc; host or cells: E. coli expression system
The experiment in a line: ERK2 enzyme assay (1). As to conditions: 2.5 nmol/L ERK2, ATP 43.1 μmol/L; read-out: ERK2 enzyme inhibitory activity (1). An outline of the steps:
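Enzyme (2.5 nmol/L, E. coli-expressed) preincubated with compound 15 min at room temperature in HEPES/MgCl2/DTT/Brij35 buffer, pH 7.5; reaction with 4.25 μmol/L FL-Peptide 8 and 43.1 μmol/L ATP for 120 min at 25 °C. Phosphorylated peptide fraction quantified by mobility-shift separation after EDTA stop; IC50 calculated.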

Assay [2] addresses T2, GST fusion human ERK2 protein. The experiment in a line: ERK2 enzyme assay (2). As to conditions: 1.25 nmol/L ERK2, ATP 1 mmol/L; read-out: ERK2 enzyme inhibitory activity (2). An outline of the steps:
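GST-tagged human ERK2 expressed in E. coli (1.25 nmol/L) was preincubated with compound for 15 min at room temperature in pH 7.5 Hepes buffer with MgCl2, DTT and Brij35. Reaction with FL-Peptide 8 (final 4.25 μmol/L) and ATP (final 1 mmol/L) ran 120 min at 25 °C; EDTA stopped it, and phosphorylated peptide was quantified by mobility-shift separation to derive IC50.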

T1 sequence (P42336 whole entry): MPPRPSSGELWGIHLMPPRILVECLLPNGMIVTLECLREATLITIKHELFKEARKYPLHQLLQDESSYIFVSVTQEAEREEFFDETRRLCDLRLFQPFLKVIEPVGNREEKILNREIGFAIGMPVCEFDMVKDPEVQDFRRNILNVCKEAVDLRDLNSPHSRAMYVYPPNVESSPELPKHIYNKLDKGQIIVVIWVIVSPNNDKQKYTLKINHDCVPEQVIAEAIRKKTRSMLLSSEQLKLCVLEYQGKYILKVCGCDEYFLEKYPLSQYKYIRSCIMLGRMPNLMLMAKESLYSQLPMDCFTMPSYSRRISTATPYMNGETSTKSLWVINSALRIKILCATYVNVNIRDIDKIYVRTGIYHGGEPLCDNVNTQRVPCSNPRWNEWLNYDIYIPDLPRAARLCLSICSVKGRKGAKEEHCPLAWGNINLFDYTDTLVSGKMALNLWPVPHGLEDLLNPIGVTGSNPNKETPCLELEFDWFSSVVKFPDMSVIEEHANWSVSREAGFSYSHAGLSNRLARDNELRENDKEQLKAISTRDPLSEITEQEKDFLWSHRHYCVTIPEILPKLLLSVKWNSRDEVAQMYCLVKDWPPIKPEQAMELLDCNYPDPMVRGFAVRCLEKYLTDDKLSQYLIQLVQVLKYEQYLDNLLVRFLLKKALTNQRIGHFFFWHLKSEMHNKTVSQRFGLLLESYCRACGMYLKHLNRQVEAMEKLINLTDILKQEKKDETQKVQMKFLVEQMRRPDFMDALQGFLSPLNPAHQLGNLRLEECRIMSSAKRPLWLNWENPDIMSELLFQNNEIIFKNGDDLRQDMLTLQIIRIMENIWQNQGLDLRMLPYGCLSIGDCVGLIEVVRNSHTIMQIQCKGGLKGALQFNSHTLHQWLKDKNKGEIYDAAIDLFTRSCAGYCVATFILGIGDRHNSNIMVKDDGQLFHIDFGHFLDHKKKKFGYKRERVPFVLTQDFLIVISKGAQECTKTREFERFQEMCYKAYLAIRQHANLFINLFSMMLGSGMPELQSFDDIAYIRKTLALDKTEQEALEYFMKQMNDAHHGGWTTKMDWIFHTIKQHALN
T1 sequence (P27986 whole entry partner): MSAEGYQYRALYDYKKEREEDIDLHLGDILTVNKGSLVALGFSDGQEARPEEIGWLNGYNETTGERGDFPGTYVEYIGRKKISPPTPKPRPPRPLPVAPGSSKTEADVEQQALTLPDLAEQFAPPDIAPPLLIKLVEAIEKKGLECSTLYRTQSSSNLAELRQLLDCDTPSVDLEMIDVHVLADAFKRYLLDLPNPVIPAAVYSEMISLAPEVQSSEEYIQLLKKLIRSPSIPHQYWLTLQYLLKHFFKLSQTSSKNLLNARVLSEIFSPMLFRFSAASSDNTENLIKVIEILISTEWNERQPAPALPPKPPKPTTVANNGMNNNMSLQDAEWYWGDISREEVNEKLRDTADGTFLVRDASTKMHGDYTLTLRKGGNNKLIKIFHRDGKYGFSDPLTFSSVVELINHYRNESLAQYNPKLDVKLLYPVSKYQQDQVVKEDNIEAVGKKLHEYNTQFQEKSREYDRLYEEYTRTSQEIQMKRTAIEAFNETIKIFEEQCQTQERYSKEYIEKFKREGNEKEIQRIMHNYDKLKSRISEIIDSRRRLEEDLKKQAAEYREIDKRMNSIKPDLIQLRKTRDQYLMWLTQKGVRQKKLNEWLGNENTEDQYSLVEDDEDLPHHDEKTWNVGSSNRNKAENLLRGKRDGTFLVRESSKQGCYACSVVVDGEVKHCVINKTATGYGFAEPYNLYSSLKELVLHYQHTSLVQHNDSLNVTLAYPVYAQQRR
T2 sequence (P28482 whole entry, the tested form may be a part): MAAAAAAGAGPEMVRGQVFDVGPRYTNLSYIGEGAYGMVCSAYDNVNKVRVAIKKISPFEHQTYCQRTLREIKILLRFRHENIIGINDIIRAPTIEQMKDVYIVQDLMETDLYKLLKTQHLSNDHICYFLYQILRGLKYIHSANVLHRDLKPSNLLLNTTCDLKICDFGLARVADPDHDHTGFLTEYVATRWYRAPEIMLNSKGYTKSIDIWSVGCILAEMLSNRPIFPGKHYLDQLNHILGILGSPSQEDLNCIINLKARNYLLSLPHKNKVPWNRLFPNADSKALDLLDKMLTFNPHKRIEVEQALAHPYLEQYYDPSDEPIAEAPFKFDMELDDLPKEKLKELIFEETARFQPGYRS

In the case of `c1nnc(Nc2ccc3ncc(-c4cn[nH]c4)cc3n2)s1` [Example 0032, N-(7-(1H-pyrazol-4-yl)-1,5-naphthyridin-2-yl)-1,3,4-thiadiazole-2-amine hydrochloride], the IC50 (on human PI3Kα protein; in assay [1]; in assay [2]) was less than 1 µM throughout.

Regarding `CN(c1cccnc1)c1cnc2ccc(Nc3nnc(C4CCCC4)s3)nc2c1` [Example 0071], the IC50 (at human PI3Kα protein; in assay [1]; in assay [2]) was less than 1 µM each time.

In the case of `COc1cncc(Nc2cnc3ccc(Nc4nnc(C5CCCC5)s4)nc3c2)c1` [Example 0072], the IC50 (at human PI3Kα protein; in assay [1]; in assay [2]) was less than 1 µM each time.

Consider `c1ncc(OCCCN2CCOCC2)cc1Nc1cnc2ccc(Nc3nnc(C4CCCC4)s3)nc2c1` [Example 0084], for which the IC50 (at human PI3Kα protein; in assay [1]; in assay [2]) was less than 1 µM each time.

As for `c1cc(CN2CCOCC2)ncc1Nc1cnc2ccc(Nc3nnc(C4CCCC4)s3)nc2c1` [Example 0085], the IC50 (on human PI3Kα protein; in assay [1]; in assay [2]) was less than 1 µM in each case.

On to `c1cc(CN2CCCC2)ncc1Nc1cnc2ccc(Nc3nnc(C4CCCC4)s3)nc2c1` [Example 0086], for which the IC50 (at human PI3Kα protein; in assay [1]; in assay [2]) was less than 1 µM each time.

Turning to `c1ncc(OCCCN2CCCC2)cc1Nc1cnc2ccc(Nc3nnc(C4CCCC4)s3)nc2c1` [Example 0087], the IC50 (at human PI3Kα protein; in assay [1]; in assay [2]) was less than 1 µM in each case.

On to `c1cc(Nc2cnc3ccc(Nc4nnc(C5CCCC5)s4)nc3c2)cnn1` [Example 0088], for which the IC50 (at human PI3Kα protein; in assay [1]; in assay [2]) was less than 1 µM each time.

Regarding `c1ncc(Nc2cnc3ccc(Nc4nnc(C5CCCC5)s4)nc3c2)cn1` [Example 0089], the IC50 (on human PI3Kα protein; in assay [1]; in assay [2]) was less than 1 µM throughout.

With `c1ncc(N2CCOCC2)cc1Nc1cnc2ccc(Nc3nnc(C4CCCC4)s3)nc2c1` [Example 0090], the IC50 (at human PI3Kα protein; in assay [1]; in assay [2]) was less than 1 µM in each case.

Turning to `c1nc2ccc(Nc3nnc(C4CCCC4)s3)nc2cc1N1CCn2cnnc2C1` [Example 0091], the IC50 (on human PI3Kα protein; in assay [1]; in assay [2]) was less than 1 µM throughout.

For `COC1CN(c2cnc3ccc(Nc4nnc(C5CCCC5)s4)nc3c2)C1` [Example 0092], the IC50 at human PI3Kα protein is 1 to 10 µM; in assay [1], less than 1 µM; in assay [2] it was less than 1 µM.

Turning to `c1cc(OC2CCOCC2)ncc1Nc1cnc2ccc(Nc3nnc(C4CCCC4)s3)nc2c1` [Example 0093], the IC50 was 1 to 10 µM at human PI3Kα protein, less than 1 µM in assay [1] and 10 to 50 µM in assay [2].

In the case of `c1ccc2ncc(Nc3cnc4ccc(Nc5nnc(C6CCCC6)s5)nc4c3)cc2c1` [Example 0094], the IC50 on human PI3Kα protein was less than 1 µM; in assay [1] it was 10 to 50 µM; in assay [2], 10 to 50 µM.

Consider `CC(C)c1nnc(Nc2ccc3ncc(Nc4cncnc4)cc3n2)s1` [Example 0095], for which the results for the IC50 (on human PI3Kα protein; in assay [1]; in assay [2]) were less than 1 µM, less than 1 µM and 1 to 10 µM, respectively.

Consider `CC(C)c1nnc(Nc2ccc3ncc(Nc4ccc(CN5CCOCC5)nc4)cc3n2)s1` [Example 0096], for which the IC50 (on human PI3Kα protein; in assay [1]; in assay [2]) was less than 1 µM throughout.

Regarding `CCCc1nn(C)cc1-c1cnc2ccc(Nc3nnc(C4CCCC4)s3)nc2c1` [Example 0112], the IC50 (at human PI3Kα protein; in assay [1]; in assay [2]) was less than 1 µM each time.

For the molecule `COc1nn(C)cc1-c1cnc2ccc(Nc3nnc(C4CCCC4)s3)nc2c1` [Example 0114], the IC50 (at human PI3Kα protein; in assay [1]; in assay [2]) was less than 1 µM each time.

In the case of `CCCCc1nn(C)cc1-c1cnc2ccc(Nc3nnc(C4CCCC4)s3)nc2c1` [Example 0115], the IC50 (on human PI3Kα protein; in assay [1]; in assay [2]) was less than 1 µM each time.

For `c1nc(CN2CCOCC2)ncc1Nc1cnc2ccc(Nc3nnc(C4CCCC4)s3)nc2c1` [Example 0116], the IC50 (at human PI3Kα protein; in assay [1]; in assay [2]) was less than 1 µM each time.

In the case of `c1nc2ccc(Nc3nnc(C4CCCC4)s3)nc2cc1-c1cnn(CCCN2CCOCC2)c1` [Example 0117], the IC50 (on human PI3Kα protein; in assay [1]; in assay [2]) was less than 1 µM each time.

For the molecule `CC(C)c1nnc(Nc2ccc3ncc(-c4cnn(CCCN5CCOCC5)c4)cc3n2)s1` [Example 0118], the IC50 (on human PI3Kα protein; in assay [1]; in assay [2]) was less than 1 µM in each case.

Turning to `Cc1nn(C)cc1-c1cnc2ccc(Nc3nnc(C(C)C)s3)nc2c1` [Example 0120], the IC50 (at human PI3Kα protein; in assay [1]; in assay [2]) was less than 1 µM throughout.

In the case of `CCc1nn(C)cc1-c1cnc2ccc(Nc3nnc(C(C)C)s3)nc2c1` [Example 0121], the IC50 (at human PI3Kα protein; in assay [1]; in assay [2]) was less than 1 µM throughout.

`CC(C)c1nnc(Nc2ccc3ncc(-c4cn(C)nc4-c4ccccc4)cc3n2)s1` [Example 0124, 5-isopropyl-N-(7-(1-methyl-3-phenyl-1H-pyrazol-4-yl)-1,5-naphthyridin-2-yl)-1,3,4-thiadiazole-2-amine]: the figures for the IC50 (at human PI3Kα protein; in assay [1]; in assay [2]) were less than 1 µM, less than 1 µM and 1 to 10 µM, respectively.

On to `Cn1cc(-c2cnc3ccc(Nc4nnc(C5CCCC5)s4)nc3c2)c(-c2ccccc2)n1` [Example 0129, 5-cyclopentyl-N-(7-(1-methyl-3-phenyl-1H-pyrazol-4-yl)-1,5-naphthyridin-2-yl)-1,3,4-thiadiazole-2-amine], for which the results for the IC50 (at human PI3Kα protein; in assay [1]; in assay [2]) were less than 1 µM, less than 1 µM and 1 to 10 µM, respectively.

On to `COc1nn(C)cc1-c1cnc2ccc(Nc3nnc(C(C)C)s3)nc2c1` [Example 0131], for which the IC50 (at human PI3Kα protein; in assay [1]; in assay [2]) was less than 1 µM each time.

Turning to `Cn1cc(-c2cnc3ccc(Nc4nnc(C5CCCC5)s4)nc3c2)c(C2CC2)n1` [Example 0132], the IC50 (on human PI3Kα protein; in assay [1]; in assay [2]) was less than 1 µM each time.

On to `CC(C)c1nnc(Nc2ccc3ncc(-c4cn(C)nc4C4CC4)cc3n2)s1` [Example 0133], for which the IC50 (on human PI3Kα protein; in assay [1]; in assay [2]) was less than 1 µM in each case.

On to `CC(C)c1nnc(Nc2ccc3ncc(-c4cn(C)nc4-c4cccnc4)cc3n2)s1` [Example 0134], for which the IC50 (on human PI3Kα protein; in assay [1]; in assay [2]) was less than 1 µM throughout.

Turning to `CC(C)c1nnc(Nc2ccc3ncc(-c4cn(C)nc4-c4ccncc4)cc3n2)s1` [Example 0135], the IC50 was less than 1 µM at human PI3Kα protein, less than 1 µM in assay [1] and 1 to 10 µM in assay [2].

On to `CC(C)Cc1nn(C)cc1-c1cnc2ccc(Nc3nnc(C(C)C)s3)nc2c1` [Example 0138], for which the IC50 (at human PI3Kα protein; in assay [1]; in assay [2]) was less than 1 µM in each case.

Consider `COCc1nn(C)cc1-c1cnc2ccc(Nc3nnc(C(C)C)s3)nc2c1` [Example 0142], for which the IC50 (on human PI3Kα protein; in assay [1]; in assay [2]) was less than 1 µM throughout.
